Measured values: patent US4377687A, “Analogs of 1-(2-chloroethyl)-1-nitroso-3-(cycloheyl)-urea substituted by heterocyclic rings or alkyl radicals” (Stiftung Deutsches Krebsforschungszentrum, priority 1978, dated 1983)
Counter-ions that a name gives are not always drawn. Like-named read-outs stand apart in the source and are kept apart here.

Legend:
Yoshida sarcoma = format: in vivo, rat (male Sprague-Dawley rats); details: for M = median survival time: i.p. day 8
Description: The chemotherapeutic activity of nitrosoureas was compared in antitumor tests using Yoshida sarcoma ascited cells implanted into the wall of the descending colon in Sprague-Dawley rats.
(§1) Male Sprague-Dawley rats were used in the experiments. Yoshida sarcome in ascites form was maintained in the same strain of rats by serial intraperitoneal injection of 0,5 ml of ascites fluid.
(§2) 3×10^6 cells were injected into the colon wall in a manner known per se. The chemotherapeutic treatment was carried out on the eighth day after implantation of the tumor cells.
(§3) Water-insoluble compounds were dissolved in Cremophor EL/ethanol/physiological saline (20:20:60: vol.%). Water-soluble substances were dissolved in physiological saline. Cremophor EL is a surfactant on the basis of polyethoxylated castor oil. All test compounds were administered introperitoneally. The nitrosoureas were applied at approximately equitoxic doses corresponding to about 80% of the acute LD50 values observed in healthy rats of the same strain over a 28-day observation period.
Each experiment involved an untreated control group and a varying number of treated groups. Individual survival times were counted as days after tumor inoculation. At the time of death a record of whether an animal was tumor-free or not was made. All animals alive 120 days after tumor inoculation were killed. Animals that according to macroscopic examination had no tumor at the end of the experiment were considered as cured. Since in a number of control rats also no tumors occurred after 120 days the differences in cures between controls and treated animals rather than absolute numbers are reported. Differences in survival were evaluated statistically by individual comparisons between treated rats and controls using a nonparametric log-rank test (Kalbfleisch and Prentice, The statistical analysis of failure time data, Wiley, New York, 1979). Numerical evaluation was performed using a computerized system.

[1] = Mean animal weight / weight gain after tumor transplantation; format: in vivo, rat (Sprague-Dawley rats); details: CP 70 (exp. 1-3), BCNU 25, MeCCNU 45 (exp. 1), picolyl-3-CNU 25, its HCl 25 (exp. 2), morpholino-CNU 28, piperidino-CNU 15 (exp. 3), dimethylmorpholino-CNU 45 mg/kg (exp. 4); for Mean animal weight on day 50: day 50 after tumor transplantation; for Mean animal weight on day 100: day 100 after tumor transplantation
Description: as §1, §2, §3
In all treated animals and at all doses tested the mean weight gain was lower than in the controls. Table 3 gives the mean animal weights measured 50 and 100 days after tumor transplantation in experiments 1 to 5.

rat leukemia L 5222 = assay: Chemotherapeutic activity against rat Leukemia L5222; format: in vivo, rat (BD IX rats)
Description: Chemotherapeutic activity of methylformylamino-CNU against rat Leukemia L5222 (CNU=chloroethyl-nitroso-urea)
The compound to be tested was solved in Chremophor EL/ethanol/physiological saline and a single dose was administered intraperitoneally into tumor inoculated BD IX rats. The experiment involved an untreated control group and a number of treated groups. The doses used and the effects of the praeterminal treatment are summarized in the following Table from which the cures (animals free of tumor after 120 days) and the increase in life span (ILS, expressed as percentage of survival of the treated test group to the untreated control group) are evident.
Considering the fact that the true measure of the effectiveness of a drug against a neoplastic desease is the ability of the drug to kill the neoplastic cells at dosages that are not toxic to the host animal and that a quantitative evaluation of drug action is usually obtained by using the L1210 leucemia system in mice, it will be realized that in this test the tumor cells are injected into the peritoneal cavity of a mouse which thereafter is treated with the drug to be tested at a very early time after the inoculation of the tumor, i.e. at the first or second day after tumor inoculation. Thus such screening is done under very favourable test conditions for the drug. Contrary thereto the administration of the drug to be tested is performed relatively late in the case of the rat leucemia L5222, i.e. at the 8th day after tumor inoculation. It must, therefore, be taken that at that time tumor cells have colonized the cerebral region, i.e. the meninges, so that cures can only be obtained if the drug has an activity high enough to kill the leucemia cells in the cerebral region in a praeterminal state. Thus by far more severe test conditions are involved when treating rat leucemia L5222 or type Yoshida sarcoma which is a tumor model and which are hard to influence by known drugs.

[2] = Experiment 2, CP 70, picolyl-3-CNU 25, picolyl-3-CNU.HCl 25 mg/kg
[3] = Experiment 2, CP 70, picolyl-3-CNU 25, picolyl-3-CNU.HCl 25 mg/kg, 30 initial animals each
[4] = Experiment 5, CP 70, picolyl-3-CNU.HCl 25, morpholino-CNU 28, piperidino-CNU 15 mg/kg
[5] = Experiment 5, CP 70, picolyl-3-CNU.HCl 25, morpholino-CNU 28, piperidino-CNU 15 mg/kg, 15 initial animals (picolyl-3-CNU.HCl 14)
[6] = single i.p. dose printed 279 mg/kg

O=NN(CCCl)C(=O)NCc1cccnc1 [Picolyl-3-CNU, 1-(2-chloroethyl)-1-nitroso-3-(methylene-3-pyridyl)-urea]
% M (median survival time, untreated control = 100) (Yoshida sarcoma; [2]): 130%
D1-120 = difference (%) between tf1-120 of treated and untreated animals (Yoshida sarcoma; [2]): 1%
D120 = difference (%) between tf120 of treated and untreated animals (Yoshida sarcoma; [2]): -2%
tf1-120 (%) (tf120 + animals dying of toxicity) (Yoshida sarcoma; [2]): 23%
tf120 (%) (animals surviving day 120 without tumor) (Yoshida sarcoma; [2]): 20%
tf1-120, No. (tf120 + animals dying of toxicity) (Yoshida sarcoma; [3]): 7
tf120, No. (animals surviving day 120 without tumor) (Yoshida sarcoma; [3]): 6
M = median survival time (Yoshida sarcoma; [2]): 28 days
Mean animal weight on day 50 [1]: 250 g
Mean animal weight on day 100 [1]: 250 g
water solubility (in words) (Water solubility): water-insoluble

O=NN(CCCl)C(=O)NCc1cccnc1 [Picolyl-3-CNU.HCl, [1-(2-chloroethyl)-1-nitroso-3-(methylene-3-pyridilium)-ureido]-chloride]
increase in tumor-free animals (cures) above controls (Yoshida sarcoma; 120 days, CP (exp. 1-3), BCNU, MeCCNU 45, dimethylmorpholine-CNU 45, piperidino-CNU 15, picolyl-3-CNU.HCl 25 mg/kg): 15%
% M (median survival time, untreated control = 100) (Yoshida sarcoma; [2]): 125%
D1-120 = difference (%) between tf1-120 of treated and untreated animals (Yoshida sarcoma; [2]): 18%
D120 = difference (%) between tf120 of treated and untreated animals (Yoshida sarcoma; [2]): 15%
tf1-120 (%) (tf120 + animals dying of toxicity) (Yoshida sarcoma; [2]): 40%
tf120 (%) (animals surviving day 120 without tumor) (Yoshida sarcoma; [2]): 37%
tf1-120, No. (tf120 + animals dying of toxicity) (Yoshida sarcoma; [3]): 12
tf120, No. (animals surviving day 120 without tumor) (Yoshida sarcoma; [3]): 11
M = median survival time (Yoshida sarcoma; [2]): 27 days
% M (median survival time, untreated control = 100) (Yoshida sarcoma; [4]): 150%
D1-120 = difference (%) between tf1-120 of treated and untreated animals (Yoshida sarcoma; [4]): 0%
D120 = difference (%) between tf120 of treated and untreated animals (Yoshida sarcoma; [4]): 0%
tf1-120, No. (tf120 + animals dying of toxicity) (Yoshida sarcoma; [5]): 0
tf120, No. (animals surviving day 120 without tumor) (Yoshida sarcoma; [5]): 0
M = median survival time (Yoshida sarcoma; [4]): 15 days
effect on survival time / life expectancy (in words) (Yoshida sarcoma; experiments 1-4, MeCCNU 45, morpholino-CNU 28 (exp. 3 and 5), dimethylmorpholine-CNU 45, piperidino-CNU 15, picolyl-3-CNU 25, picolyl-3-CNU.HCl 25 mg/kg): without resulting in a significant increase in survival
Mean animal weight on day 50 [1]: 250 g
Mean animal weight on day 100 [1]: 260 g

CN(C=O)NC(=O)N(CCCl)N=O [methylformylamino-CNU, 1-(2-chloroethyl)-1-nitroso-3-(methyl-formyl-amino)urea]
effectiveness in rat leukemia L 5222 (in words) (rat leukemia L 5222; rat, in vivo): active
ILS (increase in life span) (rat leukemia L 5222; single i.p. dose 7 mg/kg): 70%
cures (animals free of tumor after 120 days) (rat leukemia L 5222; single i.p. dose 7 mg/kg, 7 mg/kg): 3/8 and three cured animals out of eight
ILS (increase in life span) (rat leukemia L 5222; single i.p. dose 70 mg/kg): 610%
cures (animals free of tumor after 120 days) (rat leukemia L 5222; single i.p. dose 70 mg/kg): 3/9
ILS (increase in life span) (rat leukemia L 5222; single i.p. dose 88 mg/kg): 230%
cures (animals free of tumor after 120 days) (rat leukemia L 5222; single i.p. dose 88 mg/kg): 2/6
ILS (increase in life span) (rat leukemia L 5222; single i.p. dose 111 mg/kg): 250%
ILS (increase in life span) (rat leukemia L 5222; single i.p. dose 176 mg/kg): 40%
ILS (increase in life span) (rat leukemia L 5222; single i.p. dose 11,1 mg/kg): 100%
cures (animals free of tumor after 120 days) (rat leukemia L 5222; single i.p. dose 11,1 mg/kg): 2/8
ILS (increase in life span) (rat leukemia L 5222; single i.p. dose 17,6 mg/kg): 150%
cures (animals free of tumor after 120 days) (rat leukemia L 5222; single i.p. dose 17,6 mg/kg): 2/8
ILS (increase in life span) (rat leukemia L 5222; single i.p. dose 44,2 mg/kg): 150%
cures (animals free of tumor after 120 days) (rat leukemia L 5222; single i.p. dose 44,2 mg/kg): 2/8
ILS (increase in life span) (rat leukemia L 5222; [6]): 175%
cures (animals free of tumor after 120 days) (rat leukemia L 5222; [6]): 3/8
